Read-outs that look alike come from different tables or passages of the source.
Test system: HIV-1 303B
Experiment: microbe, parasite or virus in culture
Format: cell-based
Settings: for overall antiviral effect of the two-drug combination with Example 19 (in words): classification from combination indices and confidence intervals; for Combination Indices at 50% HIV Inhibition (Confidence Interval) / Combination Indices at 75% HIV Inhibition (Confidence Interval) / Combination Indices at 90% HIV Inhibition (Confidence Interval): in combination with Example 19, 95% CI in parenthesis
Procedure: Virus and cell lines. The T-cell line, MT-2, was obtained through the AIDS Research and Reference Reagent Program. MT-2 cells were sub-cultured twice a week in RPMI 1640 medium supplemented with 10% fetal bovine serum, 2 mM L-glutamine, and 10 mM HEPES buffer pH 7.5. The HIV-1303B virus is a molecular clone derived from the NL4-3 strain of HIV-1 that was obtained from the NIH AIDS Research and Reference Reagent Program. For combinations with enfuvirtide, the NL36G virus was used. […] Virus stocks were made by transfecting 293T cells with a proviral DNA clone using LipofectAMINE PLUS (Invitrogen), according to the manufacturer's instructions. Three days post-transfection, virus was harvested and passaged once in MT-2 cells before titration in MT-2 cells.
Chemicals. Example 19, atazanavir, didanosine, stavudine, efavirenz, and enfuvirtide (T-20) were synthesized by Bristol-Myers Squibb using published or known reactions. […] Tenofovir was tested as tenofovir disopoxil fumarate. Zidovudine and zalcitabine were purchased from Sigma, and emtricitabine from Moravek Biochemicals.
Drug Susceptibility and Cytotoxicity Assays. For drug susceptibility assays, MT-2 cells were infected with HIV-1 303B (or NL36G), at an MOI of 0.001, and seeded into 96-well microtiter plates (2.5×10^5 cells/ml) containing serial dilutions of test compounds. […] Each drug ratio consisted of an array of 3-fold serial dilutions, and was performed with eight or more replicas on separate multi-well plates. HIV infected cells were incubated at 37° C. in 5% CO2, and on day five post-infection, the extent of virus replication was measured by determining cell viability using the CellTiter 96 Aqueous Non-Radioactive Cell Proliferation Assay (Promega). […] Cytotoxicity assays were performed in parallel with the combination experiments. Here, uninfected cells were exposed to the same drug combinations, and assayed after five days for cell viability using the MTS assay.
Analysis of Drug Combination Effects. For determination of combination index (CI) values, drugs were diluted in a fixed ratio and multiple ratios were analyzed. The drug serial dilutions spanned a range of concentrations near the EC50 value of each compound, so that equivalent antiviral activities could be compared. The normalized responses from each therapy are fit to the four-parameter logistic model with a common minimum and maximum across all therapies. Conceptually, this equation can be written as
In this equation, Fa stands for “fraction affected,” and represents the fraction of the viral load that has been inactivated. […] The EC50, represented by the Ci in the above equation, is the drug concentration that is expected to reduce the amount of virus by 50%, and the Bi are the parameters that reflects the slope of the concentration-response curve. For this assay, A is the bottom plateau common to all curves, D is the common top plateau, Bj is the “slope” parameter for the jth therapy, and Cj is the concentration that produces an effect equal to the average of A and D for the jth therapy. Therapies 1 and 2 correspond to mono therapies 1 and 2, respectively. Therapies 3, 4, and 5 correspond to the three combination therapies. EC50 values for each drug were determined from the single drug experiments, using the above equation. The equation was fit using a nonlinear regression routine (Proc Nlin) in PC SAS version 8.2 (SAS Institute Inc.).
To assess antiviral effects of different drug combination treatments, combination indices (CIs) were calculated according to Chou and Rideout. The combination index was computed as
In this equation [Dm]1 and [Dm]2 are the concentrations of drugs that would individually produce a specific level of effect, while [D]1 and [D]2 are the concentrations of drugs in combination that would produce the same level of effect.
Theoretically, additivity is implied if the CI is equal to one, synergy if the CI is less than one, and antagonism if the CI is greater than one.

[1] = Human immunodeficiency virus 1, MT2, 120 h
[2] = EC50 ratio Example 19:comparator 1:1
[3] = EC50 ratio Example 19:comparator 1:2.5
[4] = EC50 ratio Example 19:comparator 2.5:1

Compound | EC50 [1] | overall antiviral effect of the two-drug combination with Example 19 (in words) | Combination Indices at 50% HIV Inhibition (Confidence Interval) [2] | Combination Indices at 75% HIV Inhibition (Confidence Interval) [2] | Combination Indices at 90% HIV Inhibition (Confidence Interval) [2] | Combination Indices at 50% HIV Inhibition (Confidence Interval) [3] | Combination Indices at 75% HIV Inhibition (Confidence Interval) [3] | Combination Indices at 90% HIV Inhibition (Confidence Interval) [3] | Combination Indices at 50% HIV Inhibition (Confidence Interval) [4] | Combination Indices at 75% HIV Inhibition (Confidence Interval) [4] | Combination Indices at 90% HIV Inhibition (Confidence Interval) [4] | EC50 (single drug, MT-2 cells, MOI 0.001, day five, MTS cell viability, read-out: EC50)
Cc1c(O)cccc1C(=O)N[C@@H](CSc1ccccc1)[C@H](O)CN1C[C@H]2CCCC[C@H]2C[C@H]1C(=O)NC(C)(C)C [Nelfinavir, nelfinavir] | 22 nM | synergistic-additive effect | 0.79 (0.73, 0.86) | 0.75 (0.67, 0.82) | 0.71 (0.56, 0.84) | 0.97 (0.89, 1.06) | 0.87 (0.79, 0.95) | 0.78 (0.68, 0.88) | 1.09 (1.00, 1.18) | 0.98 (0.89, 1.08) | 0.90 (0.76, 1.03) | 
Cc1cccc(C)c1OCC(=O)N[C@@H](Cc1ccccc1)[C@@H](O)C[C@H](Cc1ccccc1)NC(=O)[C@H](C(C)C)N1CCCNC1=O [Lopinavir, lopinavir] | 17 nM | additive relationship with Example 19 cannot be ruled out | 0.74 (0.67, 0.82) | 0.77 (0.66, 0.88) |  | 0.77 (0.66, 0.88) | 0.56 (0.36, 0.75) | 0.41 (0.19, 0.64) | 0.76 (0.69, 0.83) | 0.62 (0.55, 0.70) | 0.54 (0.47, 0.61) | 
CC(C)(C)NC(=O)[C@@H]1C[C@@H]2CCCC[C@@H]2CN1C[C@@H](O)[C@H](Cc1ccccc1)NC(=O)[C@H](CC(N)=O)NC(=O)c1ccc2ccccc2n1 [Saquinavir, saquinavir] | 11 nM | confidence interval is below one at all concentrations and effective levels | 0.77 (0.70, 0.84) | 0.67 (0.58, 0.75) | 0.58 (0.47, 0.69) | 0.43 (0.38, 0.48) | 0.51 (0.42, 0.59) | 0.59 (0.44, 0.74) | 0.81 (0.72, 0.89) | 0.77 (0.66, 0.89) | 0.74 (0.57, 0.91) | 
CC(C)CN(C[C@@H](O)[C@H](Cc1ccccc1)NC(=O)O[C@H]1CCOC1)S(=O)(=O)c1ccc(N)cc1 [Amprenavir, amprenavir] | 62 nM | synergistic-additive effect | 0.83 (0.67, 1.00) | 0.84 (0.61, 1.08) | 0.89 (0.50, 1.23) | 0.84 (0.69, 0.99) | 0.77 (0.58, 0.96) | 0.75 (0.46, 1.04) | 0.90 (0.77, 1.04) | 0.62 (0.50, 0.74) | 0.44 (0.30, 0.57) | 
Nc1nc(NC2CC2)c2ncn([C@H]3C=C[C@@H](CO)C3)c2n1 [Abacavir, abacavir] | 1040 nM | synergistic | 0.68 (0.59, 0.76) | 0.67 (0.56, 0.79) | 0.67 (0.49, 0.84) | 0.87 (0.77, 0.97) | 0.74 (0.63, 0.85) | 0.63 (0.50, 0.77) | 0.86 (0.76, 0.96) | 0.82 (0.68, 0.96) | 0.79 (0.58, 0.99) | 
CC(C)(C)NC(=O)[C@@H]1CN(Cc2cccnc2)CCN1C[C@@H](O)C[C@@H](Cc1ccccc1)C(=O)N[C@H]1c2ccccc2C[C@H]1O [Indinavir, indinavir] | 26 nM | additive relationship with Example 19 cannot be ruled out | 0.86 (0.80, 0.92) | 0.71 (0.62, 0.81) | 0.60 (0.46, 0.73) | 0.92 (0.84, 0.99) | 0.84 (0.76, 0.92) | 0.77 (0.66, 0.89) | 0.94 (0.87, 1.02) | 0.79 (0.71, 0.87) | 0.67 (0.57, 0.77) | 
Nc1nc(=O)n([C@@H]2CS[C@H](CO)O2)cc1F [Emtricitabine, emtricitabine] | 53 nM | synergistic | 0.31 (0.27, 0.36) | 0.23 (0.18, 0.28) | 0.18 (0.12, 0.24) | 0.31 (0.26, 0.37) | 0.23 (0.19, 0.29) | 0.17 (0.12, 0.28) | 0.33 (0.28, 0.38) | 0.25 (0.20, 0.30) | 0.19 (0.13, 0.25) | 
Cc1cn([C@H]2C=C[C@@H](CO)O2)c(=O)[nH]c1=O [Stavudine, stavudine] | 241 nM | synergistic | 0.52 (0.43, 0.61) | 0.46 (0.36, 0.56) | 0.42 (0.26, 0.57) | 0.60 (0.48, 0.71) | 0.60 (0.46, 0.74) | 0.61 (0.40, 0.83) | 0.70 (0.57, 0.84) | 0.63 (0.48, 0.79) | 0.58 (0.37, 0.81) | 
C[C@H](Cn1cnc2c(N)ncnc21)OCP(=O)(O)O [Tenofovir, tenofovir] |  | synergistic to additive | 0.66 (0.57, 0.75) | 0.54 (0.45, 0.62) | 0.43 (0.33, 0.53) | 0.68 (0.59, 0.77) | 0.60 (0.48, 0.72) | 0.52 (0.36, 0.69) | 0.90 (0.77, 1.04) | 0.84 (0.67, 1.01) | 0.79 (0.55, 1.03) | 18 nM

Source: patent publication US7491819B1 (priority 2004, dated 2009)
